Measured values from paper PMC3380012, “Wild-Type Phosphoribosylpyrophosphate Synthase (PRS) from Mycobacterium tuberculosis: A Bacterial Class II PRS?” (PLoS ONE, 2012).
Values joined by “and” are separate entries in the source; they are usually repeats but may differ in a detail not shown here. Identical values can stand only once. “Also recorded” adds a separate entry of the source. Like-named read-outs stand apart in the source and are kept apart here.

What was measured:
MtPRS [1] = target: T1, MtPRS (Mycobacterium tuberculosis, UniProt P9WKE3); assay: MtPRS inhibition assays (coupled assay, fixed R5P and ATP); format: biochemical
Description: (§1) All chemicals were purchased from Sigma Aldrich. All enzyme activity assays were performed in triplicate. MtPRS activity was measured by a coupled continuous spectrophotometric assay in quartz cuvettes using a UV-visible Shimadzu spectrophotometer UV2550 equipped with a temperature-controlled cuvette holder. […] Homogeneous recombinant MtOPRT was obtained as described elsewhere. […] The reaction mixture (500 µL) contained 1.8 U MtOPRT, 300 µM OA, 20 mM MgCl2, in Tris HCl 50 mM pH 8.0. Reaction was started by addition of MtPRS (0.24–1.2 µM). One unit of MtPRS is defined as the amount of enzyme necessary to convert 1 µmol of R5P to PRPP per min. Effect of Pi over MtPRS activity was assessed by varying Pi concentration (10–50 mM) in the reaction conditions described above.
All measurements were performed in triplicate. The concentration of inhibitor required to reduce the fractional enzyme activity to half of its initial value in the absence of inhibitor (IC50) was obtained from fitting the data to Eq. (4) for partial inhibition, in which y is the fractional activity of the enzyme in the presence of inhibitor at concentration [I]; y (max) is the maximum value of y observed at [I] = 0; and y min is the minimum limiting value of y at high inhibitor concentrations. [drawing 4] (4)

[2] = target: T2, MtOPRT (M. tuberculosis orotate phosphoribosyltransferase) (Mycobacterium tuberculosis, UniProt P9WHK9); assay: Control measurement of coupled enzyme MtOPRT activity in presence of donors and inhibitors; format: biochemical; details: compounds present in the assay mixtures of the coupled assays; data not shown
T2 construct: made in house
T2 sequence (P9WHK9 whole entry): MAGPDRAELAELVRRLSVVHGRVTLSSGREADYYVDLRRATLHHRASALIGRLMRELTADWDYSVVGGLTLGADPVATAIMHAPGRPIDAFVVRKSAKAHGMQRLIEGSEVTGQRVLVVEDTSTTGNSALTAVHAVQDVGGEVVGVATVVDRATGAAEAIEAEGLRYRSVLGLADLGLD
Description: as §1
Accordingly, the effects of the alternative diphosphoryl group donors, or nucleoside 5′-diphosphate or monophosphate inhibitors, were solely due to changes in MtPRS enzyme activity.

M. tuberculosis PRS [3] = details: cited from earlier work; for IC50: read-out: IC50 (inhibition of MtPRS activity)
MtPRS [4] = target: T1, MtPRS; assay: Intrinsic tryptophan fluorescence (ITF) titration, binary complex formation at equilibrium; format: binding; details: for Kd: Tris HCl 50 mM pH 7.5, MgCl2 20 mM, read-out: KD (hyperbolic binding to free MtPRS); for change in intrinsic protein fluorescence upon titration of free MtPRS: absence of second substrate
Description: Intrinsic tryptophan fluorescence titration was carried out to assess binary complex formation at equilibrium between MtPRS and either substrate(s) or product(s) at 25°C [43]. […] Fluorescence titrations were performed by making microliter additions of substrates and products at varying stock concentrations to 1 mL of MtPRS 3 µM, with a maximum dilution of 6%. […] After each ligand titration, the mixture was stirred for 3 minutes to ensure equilibrium binding prior to ITF measurements. […] Control experiments were performed in the same conditions in the absence of MtPRS to verify any inner filter effect, and the values found in the control experiments were subtracted from those obtained in the presence of the enzyme. No corrections for effects of protein dilution on ITF upon addition of buffer A containing MgCl2 20 mM to MtPRS were necessary. Data from equilibrium fluorescence spectroscopy were fitted to Eq. (5) for hyperbolic binding isotherms, in which F is the observed fluorescence signal; F max is the maximal fluorescence intensity; and KD represents the dissociation constant for binding of substrate and/or product to MtPRS. Sigmoidal binding data were fitted Eq. (6), in which F is the observed fluorescence signal, F max is the maximal fluorescence intensity, n is the Hill coefficient, and K’ is a constant comprising interaction factors and the intrinsic dissociation constant. [drawing 5] (5) [drawing 6] (6)

M. tuberculosis PRS [5] = details: ref Alderwick, et al. 2011 [30], cited from earlier work
[6] = target: T3, MtPRS (Mycobacterium tuberculosis phosphoribosylpyrophosphate synthase) (Mycobacterium tuberculosis, UniProt P9WKE3); details: diphosphoryl donor varied, R5P fixed at 60 µM, 25°C
S. typhimurium PRS = tested on: S. typhimurium PRS; parameters: method as in PMID 211378; details: cited from earlier work
[7] = target: T3, MtPRS (Mycobacterium tuberculosis phosphoribosylpyrophosphate synthase); assay: biochemical
[8] = tested on: Nc1nc2c(ncn2[C@@H]2O[C@H](COP(=O)(O)OP(=O)(O)OP(=O)(O)O)[C@@H](O)[C@H]2O)c(=O)[nH]1; assay: purified protein, by the assay type; details: pH 8.0
[9] = tested on: O=P(O)(O)OC[C@H]1O[C@H](O)[C@H](O)[C@@H]1O; assay: purified protein, by the assay type; details: pH 8.0
[10] = tested on: O=c1ccn([C@@H]2O[C@H](COP(=O)(O)OP(=O)(O)OP(=O)(O)O)[C@@H](O)[C@H]2O)c(=O)[nH]1; assay: purified protein, by the assay type; details: pH 8.0
[11] = target: the molecule itself; assay: cross-linking; glutaraldehyde vapour cross-linking, 0.3 mg/mL MtPRS in Tris HCl 50 mM pH 7.5 with ADP 5 mM, with or without Pi 50 mM, 30°C, 12% SDS-PAGE
[12] = target: the molecule itself; assay: cross-linking; glutaraldehyde vapour cross-linking, 0.3 mg/mL MtPRS in Tris HCl 50 mM pH 7.5 with ATP 5 mM, with or without Pi 50 mM, 30°C, 12% SDS-PAGE
[13] = target: the molecule itself; assay: cross-linking; glutaraldehyde vapour cross-linking, 0.3 mg/mL MtPRS in Tris HCl 50 mM pH 7.5 with R5P 5 mM, with or without Pi 50 mM, 30°C, 12% SDS-PAGE
[14] = target: the molecule itself; assay: cross-linking; glutaraldehyde vapour cross-linking, 0.3 mg/mL apo MtPRS in Tris HCl 50 mM pH 7.5, with or without Pi 50 mM, 30°C, different incubation times, 12% SDS-PAGE
[15] = target: the molecule itself; assay: as above; remark: listed apart in the source
[16] = read-out: IC50 (partial inhibition of MtPRS activity)
[17] = 37°C, KH2PO4 50 mM pH 8.0, ref Lucarelli, et al. 2010 [31]
[18] = ref Lucarelli, et al. 2010 [31]

Molecule: Nc1ncnc2c1ncn2[C@@H]1O[C@H](COP(=O)(O)OP(=O)(O)O)[C@@H](O)[C@H]1O [ADP, adenosine 5′-diphosphate]
- IC50 (MtPRS [1]; [16]): 70 µM
- effect on MtOPRT enzyme activity [2]: did not have any effect
- IC50 (M. tuberculosis PRS [3]; saturating ATP and non-saturating Pi concentrations): 260 µM
- IC50 (M. tuberculosis PRS [3]; saturating ATP and saturating Pi concentrations): 400 µM

Molecule: Nc1ncnc2c1ncn2[C@@H]1O[C@H](COP(=O)(O)O)[C@@H](O)[C@H]1O [AMP]
- K' (sigmoidal binding, Hill equation) (MtPRS [4]; 25°C, MtPRS 3 µM, MgCl2 20 mM): 109 (±3) µM and 109 µM
- Hill coefficient (MtPRS [4]; sigmoidal binding to free MtPRS): 3.2

Molecule: Nc1ncnc2c1ncn2[C@@H]1O[C@H](COP(=O)(O)OP(=O)(O)OP(=O)(O)O)[C@@H](O)[C@H]1O [ATP, adenosine 5′-triphosphate]
- Kd (MtPRS [4]; 25°C, MtPRS 3 µM): 18 µM
- effect on MtOPRT enzyme activity [2]: did not have any effect
- Vmax (M. tuberculosis PRS [5]; 37°C, KH2PO4 50 mM pH 8.0): 601 µmol⁻¹ min⁻¹ mg⁻¹
- S0.5 (M. tuberculosis PRS [5]): 62.65 µM
- n (Hill coefficient) (M. tuberculosis PRS [5]): 1.68
- kcat (M. tuberculosis PRS [3]; [17]): 34.6 (±3) s^−1
- S0.5 (M. tuberculosis PRS [3]; [18]): 260 (±50) µM
- n (Hill coefficient) (M. tuberculosis PRS [3]; [18]): 1

Molecule: Nc1ccn([C@@H]2O[C@H](COP(=O)(O)OP(=O)(O)OP(=O)(O)O)[C@@H](O)[C@H]2O)c(=O)n1 [CTP, cytosine 5′-triphosphate]
- change in intrinsic protein fluorescence upon titration of free MtPRS (MtPRS [4]; 25°C, MtPRS 3 µM): No change in protein fluorescence; also recorded: no change in IFT could be detected
- effect on MtOPRT enzyme activity [2]: did not have any effect
- Vmax (apparent) ([6]; pH 8.0, no Pi): 0.111 (±0.003) µmol^−1 min^−1 mg^−1
- kcat ([6]; pH 8.0, no Pi): 0.065 (±0.001) s^−1
- Km ([6]; read-out: KM (apparent), Tris HCl 50 mM pH 8.0, MgCl2 20 mM, no Pi): 26 µM
- activity as alternative substrate, of maximum reported activity using ATP as substrate (S. typhimurium PRS): 3%

Molecule: Nc1nc2c(ncn2[C@@H]2O[C@H](COP(=O)(O)OP(=O)(O)O)[C@@H](O)[C@H]2O)c(=O)[nH]1 [GDP, guanosine 5′-diphosphate]
- IC50 (MtPRS [1]; [16]): 900 µM
- effect on MtOPRT enzyme activity [2]: did not have any effect
- IC50 (M. tuberculosis PRS [3]; in the presence of Pi): > 5000 µM

Molecule: Nc1nc2c(ncn2[C@@H]2O[C@H](COP(=O)(O)OP(=O)(O)OP(=O)(O)O)[C@@H](O)[C@H]2O)c(=O)[nH]1 [GTP, guanosine 5′-triphosphate]
- Kd (MtPRS [4]; 25°C, MtPRS 3 µM): 21 µM
- effect on MtOPRT enzyme activity [2]: did not have any effect
- activity as alternative substrate, of maximum reported activity using ATP as substrate (S. typhimurium PRS): 3%

Molecule: O=c1[nH]cnc2c1ncn2[C@@H]1O[C@H](COP(=O)(O)OP(=O)(O)OP(=O)(O)O)[C@@H](O)[C@H]1O [ITP]
- activity as alternative substrate, of maximum reported activity using ATP as substrate (S. typhimurium PRS): 3%

Molecule: O=P(O)(O)OC[C@H]1O[C@H](OP(=O)(O)OP(=O)(O)O)[C@H](O)[C@@H]1O [PRPP, 5-phospho-α-D-ribose 1-diphosphate]
- change in intrinsic protein fluorescence upon titration of free MtPRS (MtPRS [4]; 25°C, MtPRS 3 µM): no intrinsic protein fluorescence change; also recorded: No change in ITF could be detected

Molecule: O=P(O)(O)OC[C@H]1O[C@H](O)[C@H](O)[C@@H]1O [R5P, α-D-ribose 5-phosphate]
- Kd (MtPRS [4]; 25°C, MtPRS 3 µM): 61 µM
- Km (M. tuberculosis PRS [5]; 37°C, KH2PO4 50 mM pH 8.0): 8.2 µM
- Vmax (M. tuberculosis PRS [5]; 37°C, KH2PO4 50 mM pH 8.0): 530 µmol⁻¹ min⁻¹ mg⁻¹
- kcat (M. tuberculosis PRS [5]; 37°C, KH2PO4 50 mM pH 8.0): 60.68 s⁻¹
- Km (M. tuberculosis PRS [3]; [17]): 71 µM
- kcat (M. tuberculosis PRS [3]; [17]): 37.1 s⁻¹
- Ki [7]: 211 µM

Molecule: O=c1ccn([C@@H]2O[C@H](COP(=O)(O)O)[C@@H](O)[C@H]2O)c(=O)[nH]1 [UMP]
- IC50 (MtPRS [1]; R5P 60 µM, ATP 300 µM fixed, 0.24 µM MtPRS, no Pi, fit to partial inhibition equation): 3000 µM
- effect on MtOPRT enzyme activity [2]: did not have any effect

Molecule: O=c1ccn([C@@H]2O[C@H](COP(=O)(O)OP(=O)(O)OP(=O)(O)O)[C@@H](O)[C@H]2O)c(=O)[nH]1 [UTP, uridine 5′-triphosphate]
- change in intrinsic protein fluorescence upon titration of free MtPRS (MtPRS [4]; 25°C, MtPRS 3 µM): No change in protein fluorescence; also recorded: no change in IFT could be detected
- effect on MtOPRT enzyme activity [2]: did not have any effect
- activity as alternative substrate, of maximum reported activity using ATP as substrate (S. typhimurium PRS): 3%

Molecule: MtPRS (Mycobacterium tuberculosis phosphoribosylpyrophosphate synthase) (Mycobacterium tuberculosis H37Rv)
- Km [8]: 37 (±9) µM
- Vmax [8]: 0.237 µmol/min/mg
- kcat [8]: 0.14 ± 0.002 s⁻¹
- kcat/Km [8]: 3800 ± 900 M⁻¹ s⁻¹
- Km [9]: 14 (±2) µM
- Vmax [9]: 1.41 µmol/min/mg
- kcat [9]: 0.83 ± 0.04 s⁻¹
- kcat/Km [9]: 59000 ± 8000 M⁻¹ s⁻¹
- Km [10]: 52 (±7) µM
- Vmax [10]: 0.264 µmol/min/mg
- kcat [10]: 0.155 s⁻¹
- kcat/Km [10]: 3000 M⁻¹ s⁻¹

B1: Mycobacterium tuberculosis phosphoribosylpyrophosphate synthase (MtPRS) (enzyme)
chain: MSHDWTDNRKNLMLFAGRAHPELAEQVAKELDVHVTSQDAREFANGEIFVRFHESVRGCDAFVLQSCPAPVNRWLMEQLIMIDALKRGSAKRITAVMPFYPYARQDKKHRGREPISARLIADLLKTAGADRIVTVDLHTDQIQGFFDGPVDHMRGQNLLTGYIRDNYPDGNMVVVSPDSGRVRIAEKWADALGGVPLAFIHKTRDPRVPNQVVSNRVVGDVAGRTCVLIDDMIDTGGTIAGAVALLHNDGAGDVIIAATHGVLSDPAAQRLASCGAREVIVTNTLPIGEDKRFPQLTVLSIAPLLASTIRAVFENGSVTGLFDGDA
notes: also called prsA gene product; Rv1017c
- stoichiometry N [11]: 4
- stoichiometry N [12]: 2
- stoichiometry N [13]: 6
- stoichiometry N [14]: 3
- stoichiometry N [15]: 6
